Tests used:
[1] = target: T1, recombinant human ALK5 (TGF-βR1) protein (Homo sapiens, UniProt P36897); assay: Biochemical ALK5 (TGF-βR1) assay to measure pKi (LANCE Ultra ULight kinase assay); conditions: apparent pKi, converted from pIC50 using the Cheng-Prusoff equation
T1 construct: purchased Life Technologies PR9075A
T1 sequence (P36897 34-503): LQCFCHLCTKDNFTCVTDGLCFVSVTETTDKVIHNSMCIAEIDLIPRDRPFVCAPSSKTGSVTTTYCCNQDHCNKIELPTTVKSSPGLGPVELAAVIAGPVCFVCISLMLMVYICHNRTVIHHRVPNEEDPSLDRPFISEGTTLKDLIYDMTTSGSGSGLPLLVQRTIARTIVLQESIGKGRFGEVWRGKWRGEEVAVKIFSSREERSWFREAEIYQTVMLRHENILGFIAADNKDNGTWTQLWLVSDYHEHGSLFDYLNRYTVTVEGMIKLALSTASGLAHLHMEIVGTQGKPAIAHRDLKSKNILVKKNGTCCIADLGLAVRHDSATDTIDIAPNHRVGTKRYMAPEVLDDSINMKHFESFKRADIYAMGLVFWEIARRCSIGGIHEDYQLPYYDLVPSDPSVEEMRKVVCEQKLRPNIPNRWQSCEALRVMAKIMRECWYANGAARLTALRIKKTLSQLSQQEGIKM
Outline: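 TR-FRET kinase format: compound dose range 10 μM–25 pM equilibrated 60 min with human ALK5 and ULight-labelled topoisomerase 2α peptide in HEPES/MgCl2 buffer pH 7.5 with DTT. Reaction started with ATP (125 μM stock, 5× final), 60 min at 37° C, stopped with EDTA/Eu-anti-phospho antibody; pKi derived from pIC50 via Cheng-Prusoff.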

[2] = test system: TGF-β-stimulated SMAD3 phosphorylation in BEAS-2B cells; assay: Cellular ALK5 potency assay, inhibition of TGF-β stimulated pSMAD3 formation in BEAS-2B cells; type: cell-based; conditions: Homo sapiens, inhibition of TGF-β (10 ng/mL) stimulated pSMAD3 formation, 1 hour compound incubation, read-out: BEAS2B pIC50 (converted)
Outline: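 Phospho-SMAD3 was quantified by AlphaLISA in lysates of human lung epithelial BEAS-2B cells. Compound was added 1 h (37 °C, HEPES/BSA-supplemented HBSS) before a 30 min challenge with 10 ng/mL TGF-β. Values are pIC50 relative to stimulated cells without compound.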

Compound	Ki [1] [nM]	IC50 [2] [nM]
COCc1cccc(-c2n[nH]cc2-c2ccc3ncc(C4=CCC(N)CC4)cc3n2)c1 (stereo not drawn) [Compound 14-12, 4-[6-[3-[3-(methoxymethyl)phenyl]-1H-pyrazol-4-yl]-1,5-naphthyridin-3-yl]cyclohex-3-en-1-amine]	0.398 to 3.16	25.1 to 158
CCOC(=O)CNCCn1cc(-c2cnc3ccc(-c4c[nH]nc4-c4cc(Cl)ccc4F)nc3c2)cn1 [Compound 1-127, ethyl 2-[2-[4-[6-[3-(5-chloro-2-fluoro-phenyl)-1H-pyrazol-4-yl]-1,5-naphthyridin-3-yl]pyrazol-1-yl]ethylamino]acetate]	≤ 0.0316	200 to 1260
NC1CCN(c2cnc3ccc(-c4c[nH]nc4-c4cc(Cl)c(F)cc4F)nc3c2)C1 (stereo not drawn) [Compound 6-34, 1-[6-[3-(5-chloro-2,4-difluoro-phenyl)-1H-pyrazol-4-yl]-1,5-naphthyridin-3-yl]pyrrolidin-3-amine]	≤ 0.0316	≤ 20
Fc1ccc(Cl)cc1-c1[nH]cnc1-c1ccc2ncc(NCC3CCCCN3)cc2n1 (stereo not drawn) [Compound 2-31, 6-[5-(5-chloro-2-fluoro-phenyl)-1H-imidazol-4-yl]-N-(2-piperidylmethyl)-1,5-naphthyridin-3-amine]	0.398 to 3.16	25.1 to 158
Fc1ccc(Cl)cc1-c1nnn(Cc2ccccc2)c1-c1ccc2ncccc2n1 [Compound 4-1, 2-(1-benzyl-4-(5-chloro-2-fluorophenyl)-1H-1,2,3-triazol-5-yl)-1,5-naphthyridine]	0.398 to 3.16	200 to 1260
CNCCn1cc(-c2cnc3ccc(-c4c(-c5cc(Cl)ccc5F)[nH]c5cccnc45)cc3c2)cn1 [Compound 21-1, 2-(4-(6-(2-(5-chloro-2-fluorophenyl)-1H-pyrrolo[3,2-b]pyridin-3-yl)quinolin-3-yl)-1H-pyrazol-1-yl)-N-methylethan-1-amine]	0.398 to 3.16	200 to 1260
CNCCn1cc(-c2cnc3ccc(-c4nc[nH]c4-c4cc(Cl)ccc4F)nc3c2)cn1 [Compound 2-19, 2-[4-[6-[5-(5-chloro-2-fluoro-phenyl)-1H-imidazol-4-yl]-1,5-naphthyridin-3-yl]pyrazol-1-yl]-N-methyl-ethanamine]	0.0398 to 0.316	25.1 to 158
Fc1ccc(Cl)cc1-c1n[nH]cc1-c1ccc2ncc(-c3[nH]nc4c3CCN4)cc2n1 [Compound 1-125, 2-[3-(5-chloro-2-fluoro-phenyl)-1H-pyrazol-4-yl]-7-(2,4,5,6-tetrahydropyrrolo[2,3-c]pyrazol-3-yl)-1,5-naphthyridine]	0.0398 to 0.316	25.1 to 158
CC(C)N1CCN(CCNc2cnc3ccc(-c4nc[nH]c4-c4cc(Cl)c(F)cc4F)nc3c2)CC1 [Compound 7-2, 6-[5-(5-chloro-2,4-difluoro-phenyl)-1H-imidazol-4-yl]-N-[2-(4-isopropylpiperazin-1-yl)ethyl]-1,5-naphthyridin-3-amine]	0.0398 to 0.316	25.1 to 158
Fc1ccc(Cl)cc1-c1[nH]nnc1-c1ccc2ncc(-c3c[nH]nc3C(F)(F)F)cc2n1 [Compound 5-2, 2-(5-(5-chloro-2-fluorophenyl)-1H-1,2,3-triazol-4-yl)-7-(3-(trifluoromethyl)-1H-pyrazol-4-yl)-1,5-naphthyridine]	3.98 to 31.6	25.1 to 158
Fc1ccc(-c2n[nH]cc2-c2ccc3ncc(-c4cn[nH]c4)cc3n2)c(F)c1 [Compound 10-1, 2-(3-(2,4-difluorophenyl)-1H-pyrazol-4-yl)-7-(1H-pyrazol-4-yl)-1,5-naphthyridine]	0.0398 to 0.316	≤ 20
Fc1ccc(Cl)cc1-c1n[nH]cc1-c1ccc2ncc(N3CCCNCC3)cc2n1 [Compound 1-63, 2-[3-(5-chloro-2-fluoro-phenyl)-1H-pyrazol-4-yl]-7-(1,4-diazepan-1-yl)-1,5-naphthyridine]	0.398 to 3.16	25.1 to 158
CC(C)N1CCN(CCNc2cnc3ccc(-c4nc[nH]c4-c4cccc(Cl)c4)nc3c2)CC1 [Compound 29-1, 6-(5-(3-chlorophenyl)-1H-imidazol-4-yl)-N-(2-(4-isopropylpiperazin-1-yl)ethyl)-1,5-naphthyridin-3-amine]	0.398 to 3.16	≤ 20
Fc1ccc(Cl)cc1-c1n[nH]cc1-c1ccc2ncc(-c3nnc4n3CCN4)cc2n1 [Compound 1-110, 2-[3-(5-chloro-2-fluoro-phenyl)-1H-pyrazol-4-yl]-7-(6,7-dihydro-5H-imidazo[2,1-c][1,2,4]triazol-3-yl)-1,5-naphthyridine]	0.0398 to 0.316	200 to 1260
CCN1CCN(CCNc2cnc3ccc(-c4c[nH]nc4-c4cc(Cl)c(F)cc4F)nc3c2)CC1 [Compound 6-3, 6-[3-(5-chloro-2,4-difluoro-phenyl)-1H-pyrazol-4-yl]-N-[2-(4-ethylpiperazin-1-yl)ethyl]-1,5-naphthyridin-3-amine]	0.0398 to 0.316	≤ 20
Fc1ccc(Cl)cc1-c1n[nH]cc1-c1ccc2ncc(N3CCn4nc(N5CCN(Cc6ccccc6)CC5)nc4C3)cc2n1 [Compound 1-46, 7-[2-(4-benzylpiperazin-1-yl)-6,8-dihydro-5H-[1,2,4]triazolo[1,5-a]pyrazin-7-yl]-2-[3-(5-chloro-2-fluoro-phenyl)-1H-pyrazol-4-yl]-1,5-naphthyridine]	0.0398 to 0.316	25.1 to 158
Fc1ccc(Cl)cc1-c1[nH]cnc1-c1ccc2ncc(-c3nnn4c3CNCC4)cc2c1 [Compound 17-12, 6-[5-(5-chloro-2-fluoro-phenyl)-1H-imidazol-4-yl]-3-(4,5,6,7-tetrahydrotriazolo[1,5-a]pyrazin-3-yl)quinoline]	0.398 to 3.16	25.1 to 158
Fc1ccc(Cl)cc1-c1n[nH]cc1-c1ccc2ncc(-c3ncc4n3CCN4)cc2n1 [Compound 1-129, 2-[3-(5-chloro-2-fluoro-phenyl)-1H-pyrazol-4-yl]-7-(2,3-dihydro-1H-imidazo[1,2-c]imidazol-5-yl)-1,5-naphthyridine]	0.398 to 3.16	200 to 1260
CNCCn1cc(-c2cnc3ccc(-c4nc[nH]c4-c4cc(Cl)ccc4F)cc3c2)cn1 [Compound 17-2, 2-[4-[6-[5-(5-chloro-2-fluoro-phenyl)-1H-imidazol-4-yl]-3-quinolyl]pyrazol-1-yl]-N-methyl-ethanamine]	≤ 0.0316	25.1 to 158
Fc1cc(F)c(-c2n[nH]cc2-c2ccc3ncc(-c4cn[nH]c4)cc3n2)cc1Cl [Compound 6-6, 2-[3-(5-chloro-2,4-difluoro-phenyl)-1H-pyrazol-4-yl]-7-(1H-pyrazol-4-yl)-1,5-naphthyridine]	0.0398 to 0.316	≤ 20
CCN1CCC(N(C)c2cnc3ccc(-c4c[nH]nc4-c4cc(Cl)c(F)cc4F)nc3c2)CC1 [Compound 6-15, 6-[3-(5-chloro-2,4-difluoro-phenyl)-1H-pyrazol-4-yl]-N-(1-ethyl-4-piperidyl)-N-methyl-1,5-naphthyridin-3-amine]	0.398 to 3.16	25.1 to 158
O=C(O)CC1CN(c2cnc3ccc(-c4nc[nH]c4-c4cccc(Cl)c4)nc3c2)CCN1 (stereo not drawn) [Compound 29-4, 2-(4-(6-(5-(3-chlorophenyl)-1H-imidazol-4-yl)-1,5-naphthyridin-3-yl)piperazin-2-yl)acetic acid]	0.398 to 3.16	1580 to 10000
O=C(O)CC1CNCCN1c1cnc2ccc(-c3nc[nH]c3-c3cc(Cl)ccc3F)nc2c1 (stereo not drawn) [Compound 2-32, 2-[1-[6-[5-(5-chloro-2-fluoro-phenyl)-1H-imidazol-4-yl]-1,5-naphthyridin-3-yl]piperazin-2-yl]acetic acid]	3.98 to 31.6	200 to 1260
Fc1ccc(Cl)cc1-c1n[nH]cc1-c1ccc2ncc(-c3cn(Cc4cnc5c(c4)CNCC5)nn3)cc2n1 [Compound 1-112, 2-[3-(5-chloro-2-fluoro-phenyl)-1H-pyrazol-4-yl]-7-[1-(5,6,7,8-tetrahydro-1,6-naphthyridin-3-ylmethyl)triazol-4-yl]-1,5-naphthyridine]	0.0398 to 0.316	25.1 to 158
CNCCn1ccc(-c2cnc3ccc(-c4c[nH]nc4-c4cc(Cl)c(F)cc4F)nc3c2)n1 [Compound 6-40, 2-(3-(6-(3-(5-chloro-2,4-difluorophenyl)-1H-pyrazol-4-yl)-1,5-naphthyridin-3-yl)-1H-pyrazol-1-yl)-N-methylethan-1-amine]	≤ 0.0316	≤ 20
O=C(O)[C@H]1CN(c2cnc3ccc(-c4nc[nH]c4-c4cc(Cl)c(F)cc4F)cc3c2)CCN1 [Compound 22-6, (2R)-4-[6-[5-(5-chloro-2,4-difluoro-phenyl)-1H-imidazol-4-yl]-3-quinolyl]piperazine-2-carboxylic acid]	3.98 to 31.6	1580 to 10000
CN1CCN(C2CCN(c3cnc4ccc(-c5c[nH]nc5-c5ccccc5F)nc4c3)CC2)CC1 [Compound 11-1, 2-(3-(2-fluorophenyl)-1H-pyrazol-4-yl)-7-(4-(4-methylpiperazin-1-yl)piperidin-1-yl)-1,5-naphthyridine]	0.398 to 3.16	25.1 to 158

Source: patent US11730720B2, “ALK5 inhibitors” (THERAVANCE BIOPHARMA R&D IP, LLC, priority 2018, dated 2023)
